One assay has as its system HT-29 cells. The assay can be described thus: MTS antiproliferative assay, HT-29. Type of assay: cell-based. The following applies: Homo sapiens. How it is done: (§1) The extracts are solubilized in DMSO and normalized based on their phenolic content to evaluate their antiproliferative activities against the colon cell lines. […] Caco-2 cells are grown in EMEM medium supplemented with 10% v/v fetal bovine serum, 1% v/v nonessential amino acids, 1% v/v L-glutamine and 1% v/v antibiotic solution (Sigma). HT-29 and HCT-116 cells are grown in McCoy's 5a medium supplemented with 10% v/v fetal bovine serum, 1% v/v nonessential amino acids, 2% v/v HEPES and 1% v/v antibiotic solution. CCD-18Co cells are grown in EMEM medium supplemented with 10% v/v fetal bovine serum, 1% v/v nonessential amino acids, 1% v/v L-glutamine and 1% v/v antibiotic solution and are used from PDL between 26 to 35 for all experiments. […] The pH of the culture medium is determined using pH indicator paper (pHydrion™ Brilliant, pH 5.5-9.0, Micro Essential Laboratory, NY, USA) inside the incubator. Cells are counted using a hemacytometer and are plated at 3,000-5,000 cells per well, in a 96-well format for 24 or 48 h prior to sample treatment depending on the cell line. […] Control cells are also run in parallel and subjected to the same changes in medium with 0.5% DMSO.
(§2) At the end of 48 or 72 h of treatment with serially diluted test samples, 20 μl of the MTS reagent, in combination with the electron coupling agent, phenazine methosulfate, is added to the wells and cells are incubated at 37° C. in a humidified incubator for 3 h. Absorbance at 490 nm (OD490) is monitored with a spectrophotometer (SpectraMax M2, Molecular Devices Corp., operated by SoftmaxPro v.4.6 software, Sunnyvale, Calif., USA), to obtain the number of cells relative to control populations. 20 μl of etoposide 4 mg/ml (Sigma) is assayed as a negative control of proliferation. […] Data are presented as the mean±S.D. of three separated experiments on each cell line.
Background: Formazan colour is commonly taken as a measure of viable cells.

Another assay concerns the target α-glucosidase (Saccharomyces cerevisiae, UniProt P53341). The assay can be described thus: α-Glucosidase inhibition, red maple stem compounds (Example 4). The class given is biochemical. The settings on record: for α-glucosidase inhibitory activity (in words): by number of galloyl groups.
The next assay concerns Caco-2 cells. The assay can be described thus: MTS antiproliferative assay, Caco-2. The following applies: Homo sapiens. Type of assay: cell-based. How it is done: The extracts are solubilized in DMSO and normalized based on their phenolic content to evaluate their antiproliferative activities against the colon cell lines. […] CCD-18Co cells are grown in EMEM medium supplemented with 10% v/v fetal bovine serum, 1% v/v nonessential amino acids, 1% v/v L-glutamine and 1% v/v antibiotic solution and are used from PDL between 26 to 35 for all experiments. […] The pH of the culture medium is determined using pH indicator paper (pHydrion™ Brilliant, pH 5.5-9.0, Micro Essential Laboratory, NY, USA) inside the incubator. […] Control cells are also run in parallel and subjected to the same changes in medium with 0.5% DMSO. […] At the end of 48 or 72 h of treatment with serially diluted test samples, 20 μl of the MTS reagent, in combination with the electron coupling agent, phenazine methosulfate, is added to the wells and cells are incubated at 37° C. in a humidified incubator for 3 h. […] Data are presented as the mean±S.D. of three separated experiments on each cell line.

The next assay has as its system HCT-116 cells. The assay can be described thus: MTS antiproliferative assay, HCT-116. The class given is cell-based. The settings on record: Homo sapiens. The procedure: as §1, §2
The nature of assay [1]: DPPH radical scavenging (antioxidant) assay. The following applies: compounds from red maple stems. How it is done: The DPPH radical scavenging activity of ascorbic acid (vitamin C) and the synthetic commercial antioxidant, butylated hydroxytoluene (BHT), are also assayed as positive controls.
The DPPH radical scavenging activity of ascorbic acid (vitamin C) and the synthetic commercial antioxidant, butylated hydroxytoluene (BHT), are also assayed as positive controls. […] Absorbance is read after 30 min at 515 nm, and the scavenging capacity (SC) is calculated as SC %=(A0−A1/A0)×100, where A0 is the absorbance of the reagent blank and A1 is the absorbance of test samples. All tests are performed in triplicate.
For orientation: DPPH is a stable violet radical that fades when it is reduced.

Another assay concerns CCD-18Co cells. The assay can be described thus: MTS antiproliferative assay, normal colon CCD-18Co. Type of assay: cell-based. The following applies: Homo sapiens. How it is done:
as §1, §2

The mark [2] stands for this setting: HT-29, read-out: IC50 HT-29 48 h, ginnalins, 48 h treatment.
The mark [3] stands for this setting: HT-29, ginnalins, 72 h treatment, read-out: IC50 HT-29 72 h.
Setting [4] is: Caco-2, read-out: IC50 Caco-2 48 h, ginnalins, 48 h treatment.
Where [5] appears, read: Caco-2, ginnalins, 72 h treatment, read-out: IC50 Caco-2 72 h.
[6] abbreviates: HCT-116, read-out: IC50 HCT-116 48 h, ginnalins, 48 h treatment.
Setting [7] is: HCT-116, ginnalins, 72 h treatment, read-out: IC50 HCT-116 72 h.
The mark [8] stands for this setting: ginnalins, 72 h treatment, normal colon cells, read-out: IC50 CCD-18Co 72 h.

Where two headings read alike, the source gives them in different places.

Sequence of α-glucosidase (P53341 whole entry): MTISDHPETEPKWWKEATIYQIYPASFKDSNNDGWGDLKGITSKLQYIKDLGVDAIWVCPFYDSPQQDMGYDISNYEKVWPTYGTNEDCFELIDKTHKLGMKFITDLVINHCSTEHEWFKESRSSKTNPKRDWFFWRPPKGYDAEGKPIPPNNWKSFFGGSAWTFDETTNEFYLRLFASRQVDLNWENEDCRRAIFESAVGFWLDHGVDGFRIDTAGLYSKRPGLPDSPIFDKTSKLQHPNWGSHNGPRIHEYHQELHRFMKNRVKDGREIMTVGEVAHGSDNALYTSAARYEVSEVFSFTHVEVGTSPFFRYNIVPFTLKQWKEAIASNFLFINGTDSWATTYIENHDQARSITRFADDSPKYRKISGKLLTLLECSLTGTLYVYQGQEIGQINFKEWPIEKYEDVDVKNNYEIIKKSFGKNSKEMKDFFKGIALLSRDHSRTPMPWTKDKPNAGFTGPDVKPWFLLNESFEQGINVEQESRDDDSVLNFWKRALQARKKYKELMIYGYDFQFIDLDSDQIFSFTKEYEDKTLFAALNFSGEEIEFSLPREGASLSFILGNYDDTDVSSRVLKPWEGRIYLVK

In the case of `O=C(O[C@H]1CO[C@H](CO)[C@@H](O)[C@@H]1O)c1cc(O)c(O)c(O)c1` [RMS 27, 2-O-galloyl-1,5-anhydro-D-glucitol], the IC50 in the assay on HT-29 cells (setting [2]) was determined as 33.8 ± 2 µg/mL; with HT-29 cells (setting [3]) it was 30.1 ± 1.3 µg/mL; with Caco-2 cells (setting [4]) it was 35 ± 1.4 µg/mL; with Caco-2 cells (setting [5]), 29.8 ± 1.2 µg/mL; in the assay on HCT-116 cells (setting [6]), 27 ± 1.9 µg/mL; with HCT-116 cells (setting [7]), 22.3 ± 2.4 µg/mL. The IC50 in assay [1] amounted to 30.5 ± 0.8 µM. Also, at α-glucosidase, the “α-glucosidase inhibitory activity (in words)” value is on record as “do not show any activity”.
Turning to `O=C(O[C@H]1[C@H](O)[C@@H](CO)OC[C@@H]1OC(=O)c1cc(O)c(O)c(O)c1)c1cc(O)c(O)c(O)c1` [RMS 9, 2,3-di-O-galloyl-1,5-anhydro-D-glucitol], at α-glucosidase, the “inhibitors of α-glucosidase enzyme, concentration dependence” value (from here on “inhibitors of α-glucosidase enzyme”) is reported as “inhibitors of α-glucosidase enzyme in a concentration-dependent manner” and the “α-glucosidase inhibitory activity (in words)” value is given as “moderate α-glucosidase inhibitory activity”. The molecule further returned an IC50 in assay [1] of 18.8 ± 0.77 µM.
`O=C(O[C@H]1[C@H](O)[C@@H](CO)OC[C@@H]1O)c1cc(O)c(O)c(O)c1` [RMS 4, 3-O-galloyl-1,5-anhydro-D-glucitol]: the “α-glucosidase inhibitory activity (in words)” value at α-glucosidase was “do not show any activity”. For the same molecule, in assay [1], the IC50 was 48 ± 1.11 µM.
Regarding `Cc1cc(C(C)(C)C)c(O)c(C(C)(C)C)c1` [BHT, butylated hydroxytoluene, reference compound], the IC50 in assay [1] worked out at 1634 ± 16.1 µM.
Still for that read-out and setting: then `O=C(O)c1cc(O)c(O)c(O)c1` [RMS 14, gallic acid], with 20.4 ± 0.34 µM.
As to `O=C(OC[C@H]1OC[C@H](OC(=O)c2cc(O)c(O)c(O)c2)[C@@H](O)[C@@H]1O)c1cc(O)c(O)c(O)c1` [RMS 26, 2,6-di-O-galloyl-1,5-anhydro-D-glucitol], the IC50 in the assay on HT-29 cells (setting [2]) is 31 ± 2.6 µg/mL; in the assay with HT-29 cells (setting [3]), 24.1 ± 1.3 µg/mL; in the assay on Caco-2 cells (setting [4]), 28.8 ± 1.8 µg/mL; in the assay on Caco-2 cells (setting [5]) it was 21.7 ± 1 µg/mL; with HCT-116 cells (setting [6]), 21.5 ± 1.6 µg/mL; in the assay on HCT-116 cells (setting [7]), 16.3 ± 2.1 µg/mL. The figures for the IC50 (in assay [1]; in the assay with CCD-18Co cells (setting [8])) were 17.7 ± 0.21 µM and 46.6 ± 3.6 µg/mL, respectively. Besides, at α-glucosidase, the “inhibitors of α-glucosidase enzyme” value is listed as “inhibitors of α-glucosidase enzyme in a concentration-dependent manner”. Further, the “α-glucosidase inhibitory activity (in words)” value on α-glucosidase is recorded as “moderate α-glucosidase inhibitory activity”.
With `O=C(OC[C@H]1OC[C@H](OC(=O)c2cc(O)c(O)c(O)c2)[C@@H](O)[C@@H]1OC(=O)c1cc(O)c(O)c(O)c1)c1cc(O)c(O)c(O)c1` [RMS 24, 2,4,6-tri-O-galloyl-1,5-anhydro-D-glucitol], on α-glucosidase, the “inhibitors of α-glucosidase enzyme” value is listed as “inhibitors of α-glucosidase enzyme in a concentration-dependent manner” and the “α-glucosidase inhibitory activity (in words)” value is given as “powerful α-glucosidase inhibitory activity”. This molecule displayed an IC50 in assay [1] of 13.1 µM.
In assay [1], `COC(=O)c1cc(O)c(O)c(OC)c1` [RMS 28, 3,4-dihydroxy-5-methoxybenzoic acid methyl ester] yielded an IC50 of 116 ± 4.98 µM.
With `O=C(O[C@H]1[C@H](O)[C@@H](OC(=O)c2cc(O)c(O)c(O)c2)CO[C@@H]1CO)c1cc(O)c(O)c(O)c1` [RMS 7, 2,4-di-O-galloyl-1,5-anhydro-D-glucitol], on α-glucosidase, the “inhibitors of α-glucosidase enzyme” value is on record as “inhibitors of α-glucosidase enzyme in a concentration-dependent manner” and the “α-glucosidase inhibitory activity (in words)” value is “moderate α-glucosidase inhibitory activity”. For the same molecule, the IC50 in assay [1] was 18.6 ± 0.77 µM.
For the molecule `O=C1O[C@H]([C@@H](O)CO)C(O)=C1O` [Vitamin C, ascorbic acid, reference compound], the IC50 in assay [1] is 71 ± 1.61 µM.
Same read-out and setting: then `COC(=O)c1cc(OC)c(O)c(OC)c1` [RMS 15, Methyl 3,5-dimethoxy-4-hydroxybenzoate], with 991 ± 80.6 µM.
`COC(=O)c1cc(O)c(O)c(O)c1` [RMS 17, Methyl gallate]: the “inhibitors of α-glucosidase enzyme” value against α-glucosidase is reported as “inhibitors of α-glucosidase enzyme in a concentration-dependent manner”. For the same molecule, the IC50 in assay [1] was found to be 16.5 ± 0.26 µM.
Consider `O=C(OC[C@H]1OC[C@H](O)[C@@H](O)[C@@H]1O)c1cc(O)c(O)c(O)c1` [RMS 12, 6-O-galloyl-1,5-anhydro-D-glucitol], for which the IC50 with HT-29 cells (setting [2]) worked out at 36.2 ± 1.5 µg/mL; in the assay with HT-29 cells (setting [3]), 27.3 ± 0.6 µg/mL; in the assay on Caco-2 cells (setting [4]), 31.1 ± 1.9 µg/mL; in the assay with Caco-2 cells (setting [5]), 22.6 ± 1.9 µg/mL; in the assay with HCT-116 cells (setting [6]), 25.1 ± 1.8 µg/mL; with HCT-116 cells (setting [7]), 20 ± 2 µg/mL. The IC50 in assay [1] was 32.7 ± 0.48 µM; with CCD-18Co cells (setting [8]), 47.1 ± 5.3 µg/mL. Moreover, at α-glucosidase, the “α-glucosidase inhibitory activity (in words)” value is given as “do not show any activity”.
Consider `O=C(OC[C@H]1OC[C@H](O)[C@@H](OC(=O)c2cc(O)c(O)c(O)c2)[C@@H]1O)c1cc(O)c(O)c(O)c1` [RMS 18, 3,6-di-O-galloyl-1,5-anhydro-D-glucitol], for which, at α-glucosidase, the “inhibitors of α-glucosidase enzyme” value was “inhibitors of α-glucosidase enzyme in a concentration-dependent manner” and the “α-glucosidase inhibitory activity (in words)” value is “moderate α-glucosidase inhibitory activity”. This molecule showed an IC50 in assay [1] of 18.5 ± 0.44 µM.
On to `O=C(O[C@H]1[C@H](O)[C@@H](O)CO[C@@H]1CO)c1cc(O)c(O)c(O)c1` [RMS 5, 4-O-galloyl-1,5-anhydro-D-glucitol], for which the “α-glucosidase inhibitory activity (in words)” value at α-glucosidase was “do not show any activity”. Moreover, in assay [1], the IC50 is 45.6 ± 1.45 µM.
For the molecule `COc1cc([C@@H]2c3cc4c(cc3[C@@H](O[C@@H]3O[C@@H]5CO[C@@H](C)O[C@H]5[C@H](O)[C@H]3O)[C@H]3COC(=O)[C@H]23)OCO4)cc(OC)c1O` [Etoposide, reference compound], the IC50 lay in the range of 10 to 20 µM in the assay on HT-29 cells (HT-29, MTS assay control, read-out: IC50 HT29 (control of proliferation)); 10 to 20 µM in the assay with Caco-2 cells (Caco-2, MTS assay control, read-out: IC50 Caco-2 (control of proliferation)); 10 to 20 µM with HCT-116 cells (HCT-116, MTS assay control, read-out: IC50 HCT116 (control of proliferation)); 30 to 40 µM with CCD-18Co cells (MTS assay control, read-out: IC50 CCD-18Co (control of proliferation)).
